Several values for one entry are separate records, joined by “and”; a condition that tells them apart may be missing. Equal values may be shown once. Inconclusive results and toxic doses are left out. Rule as the data show it: active = T/C of 150% or more; inactive = T/C below 125%.
Test system: L1210 leukemia ip in BDF1 mice, survival T/C
Experiment: NCI In Vivo Anticancer Drug Screen. Data for tumor model L1210 Leukemia (intraperitoneal) in B6D2F1 (BDF1) mice
Settings: endpoint: mean survival time, higher = longer survival
Method in brief: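 Read-out is survival time, reported as the treated-group measurement over the vehicle-control measurement.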

[1] = dose: 100.0 mg/kg/injection, schedule: Q01DX001 (ip), vehicle: carboxymethylcellulose (CMC)
[2] = dose: 100.0 mg/kg/injection, schedule: Q01DX009 (ip), vehicle: saline with Tween-80
[3] = dose: 100.0 mg/kg/injection, schedule: Q04DX002 (ip), vehicle: saline with Tween-80
[4] = dose: 200.0 mg/kg/injection, schedule: Q01DX009 (ip), vehicle: saline with Tween-80
[5] = dose: 200.0 mg/kg/injection, schedule: Q04DX002 (ip), vehicle: saline with Tween-80
[6] = dose: 400.0 mg/kg/injection, schedule: Q01DX009 (ip), vehicle: saline with Tween-80
[7] = dose: 400.0 mg/kg/injection, schedule: Q04DX002 (ip), vehicle: saline with Tween-80
[8] = dose: 75.0 mg/kg/injection, schedule: Q01DX001 (ip), vehicle: saline
[9] = dose: 100.0 mg/kg/injection, schedule: Q01DX001 (ip), vehicle: saline
[10] = dose: 200.0 mg/kg/injection, schedule: Q01DX001 (ip), vehicle: saline
[11] = dose: 400.0 mg/kg/injection, schedule: Q01DX001 (ip), vehicle: saline
[12] = dose: 100.0 mg/kg/injection, schedule: Q01DX009 (ip), vehicle: Klucel (hydroxypropylcellulose) (HPC)
[13] = dose: 100.0 mg/kg/injection, schedule: Q04DX003 (ip), vehicle: Klucel (hydroxypropylcellulose) (HPC)
[14] = dose: 200.0 mg/kg/injection, schedule: Q01DX009 (ip), vehicle: Klucel (hydroxypropylcellulose) (HPC)
[15] = dose: 200.0 mg/kg/injection, schedule: Q04DX003 (ip), vehicle: Klucel (hydroxypropylcellulose) (HPC)
[16] = dose: 400.0 mg/kg/injection, schedule: Q01DX009 (ip), vehicle: Klucel (hydroxypropylcellulose) (HPC)
[17] = dose: 400.0 mg/kg/injection, schedule: Q04DX003 (ip), vehicle: Klucel (hydroxypropylcellulose) (HPC)
[18] = dose: 100.0 mg/kg/injection, schedule: Q04DX003 (ip), vehicle: saline
[19] = dose: 200.0 mg/kg/injection, schedule: Q04DX003 (ip), vehicle: saline
[20] = dose: 400.0 mg/kg/injection, schedule: Q04DX003 (ip), vehicle: saline

Measured: T/C

Cc1ccc(NC(=O)N(CCO)N=O)cc1
inactive: dose: 12.5 mg/kg/injection, schedule: Q01DX001 (ip), vehicle: carboxymethylcellulose (CMC) 110 % of control | dose: 25.0 mg/kg/injection, schedule: Q01DX001 (ip), vehicle: carboxymethylcellulose (CMC) 105 % of control | dose: 50.0 mg/kg/injection, schedule: Q01DX001 (ip), vehicle: carboxymethylcellulose (CMC) 103 % of control and 108 % of control | [1] 100 % of control

CCOC(=O)C(CCC(C)C)C(C)=O (configuration not stated)
inactive: [2] 97 % of control | [3] 101 % of control | [4] 112 % of control | [5] 97 % of control | [6] 104 % of control | [7] 101 % of control

CCCCC1(CCC)C(=O)NC(=O)NC1=O
inactive: [8] 102 % of control | dose: 150.0 mg/kg/injection, schedule: Q01DX001 (ip), vehicle: saline 96 % of control | dose: 300.0 mg/kg/injection, schedule: Q01DX001 (ip), vehicle: saline 95 % of control

O=C(O)c1cccnn1
inactive: [9] 104 % of control | [10] 97 % of control

O=[N+]([O-])c1ccc2nc(-c3ccc(S(=O)(=O)F)cc3)cc(Cl)c2c1
inactive: dose: 100.0 mg/kg/injection, schedule: Q04DX003 (ip), vehicle: saline with Tween-80 98 % of control | dose: 200.0 mg/kg/injection, schedule: Q04DX003 (ip), vehicle: saline with Tween-80 106 % of control | dose: 400.0 mg/kg/injection, schedule: Q04DX003 (ip), vehicle: saline with Tween-80 98 % of control

C/C=C\c1ccc(OC(=O)Nc2ccc(Cl)cc2)c(OC)c1
inactive: [3] 100 % of control | [5] 100 % of control | [7] 96 % of control

CCCCCCCC/C=C\CCCCCCCCN1CC(C(=O)[O][Pb]([CH2]C)([CH2]C)[CH2]C)CC1=O (configuration not stated)
inactive: dose: 1.5 mg/kg/injection, schedule: Q01DX009 (ip), vehicle: saline with Tween-80 100 % of control | dose: 3.0 mg/kg/injection, schedule: Q01DX009 (ip), vehicle: saline with Tween-80 101 % of control | dose: 6.0 mg/kg/injection, schedule: Q01DX009 (ip), vehicle: saline with Tween-80 100 % of control | dose: 6.25 mg/kg/injection, schedule: Q01DX009 (ip), vehicle: saline with Tween-80 94 % of control | dose: 12.5 mg/kg/injection, schedule: Q04DX002 (ip), vehicle: saline with Tween-80 108 % of control | dose: 25.0 mg/kg/injection, schedule: Q04DX002 (ip), vehicle: saline with Tween-80 105 % of control

O=C(OC(=Nc1ccc([N+](=O)[O-])cc1)c1cc(N2CCCC2)ccn1)c1ccc(-c2ccccc2)cc1
inactive: [9] 98 % of control | [10] 97 % of control | [11] 92 % of control

CN=C(NC)c1ccc(NC(=O)c2ccc(C(=O)Nc3ccc(C(=NC)NC)c(OC)c3)c(Cl)c2)cc1OC
inactive: dose: 1.26 mg/kg/injection, schedule: Q01DX Z (ip), vehicle: saline 98 % of control

CC(CO)(CO)NC(=O)Nc1ccccc1F
inactive: [2] 113 % of control | [4] 103 % of control | [6] 101 % of control

COc1ccc([N+](=O)[O-])cc1NC(=O)NCc1cccnc1
inactive: dose: 100.0 mg/kg/injection, schedule: Q01DX001 (ip), vehicle: Klucel (hydroxypropylcellulose) (HPC) 91 % of control | [12] 93 % of control and 91 % of control | dose: 100.0 mg/kg/injection, schedule: Q04DX002 (ip), vehicle: Klucel (hydroxypropylcellulose) (HPC) 87 % of control and 92 % of control | [13] 103 % of control | dose: 200.0 mg/kg/injection, schedule: Q01DX001 (ip), vehicle: Klucel (hydroxypropylcellulose) (HPC) 93 % of control | [14] 93 % of control and 98 % of control | dose: 200.0 mg/kg/injection, schedule: Q04DX002 (ip), vehicle: Klucel (hydroxypropylcellulose) (HPC) 97 % of control and 87 % of control | [15] 100 % of control | dose: 400.0 mg/kg/injection, schedule: Q01DX001 (ip), vehicle: Klucel (hydroxypropylcellulose) (HPC) 90 % of control | [16] 93 % of control and 95 % of control | dose: 400.0 mg/kg/injection, schedule: Q04DX002 (ip), vehicle: Klucel (hydroxypropylcellulose) (HPC) 97 % of control and 92 % of control | [17] 101 % of control

COc1ccc(CCN(CC(=O)O)S(=O)(=O)c2ccc(C)cc2)cc1OC
inactive: [9] 91 % of control | [10] 100 % of control | [11] 100 % of control

C=C1CC2(CCC3(CC2)OCCO3)OC1=O
inactive: dose: 100.0 mg/kg/injection, schedule: Q01DX001 (ip), vehicle: saline with Tween-80 95 % of control | dose: 200.0 mg/kg/injection, schedule: Q01DX001 (ip), vehicle: saline with Tween-80 95 % of control | dose: 400.0 mg/kg/injection, schedule: Q01DX001 (ip), vehicle: saline with Tween-80 98 % of control

C1=CC23C4CCC2C2C4C4C(=C1)C3C2N1CCCCC41 (configuration not stated)
inactive: dose: 12.5 mg/kg/injection, schedule: Q04DX003 (ip), vehicle: Klucel (hydroxypropylcellulose) (HPC) 98 % of control | dose: 25.0 mg/kg/injection, schedule: Q01DX009 (ip), vehicle: Klucel (hydroxypropylcellulose) (HPC) 105 % of control | dose: 25.0 mg/kg/injection, schedule: Q04DX003 (ip), vehicle: Klucel (hydroxypropylcellulose) (HPC) 104 % of control | dose: 50.0 mg/kg/injection, schedule: Q01DX009 (ip), vehicle: Klucel (hydroxypropylcellulose) (HPC) 103 % of control | dose: 50.0 mg/kg/injection, schedule: Q04DX003 (ip), vehicle: Klucel (hydroxypropylcellulose) (HPC) 96 % of control | [13] 107 % of control

Cn1cnc(N)c1C(N)=S
inactive: [18] 100 % of control | [14] 98 % of control | [19] 92 % of control | [16] 92 % of control | [20] 104 % of control

O=Cc1c[nH]c2ccc(Br)cc12
inactive: [18] 95 % of control | [19] 105 % of control | [20] 95 % of control

c1ccc(ON=C2c3ccccc3-c3ccccc32)cc1
inactive: [18] 102 % of control | [19] 96 % of control | [20] 89 % of control

Clc1cccc2nsnc12
inactive: [12] 102 % of control | [14] 100 % of control | [16] 102 % of control

O=C1NC(c2c(Cl)cccc2Cl)Nc2ccccc21 (configuration not stated)
inactive: [13] 100 % of control | [15] 100 % of control | [17] 111 % of control

CSCS(C)=O (configuration not stated)
inactive: [18] 104 % of control | [19] 103 % of control | [20] 103 % of control

CCCCCC[As](=O)(O)CCCCCC
inactive: dose: 50.0 mg/kg/injection, schedule: Q01DX001 (ip), vehicle: saline 103 % of control

Cc1ccc(NC(=O)N2CCN(c3ccccc3)CC2)c([N+](=O)[O-])c1
inactive: [13] 96 % of control | [15] 102 % of control | [17] 91 % of control

O=C(Nc1cccc2ccccc12)c1ccccc1F
inactive: [12] 95 % of control | [14] 92 % of control | [16] 104 % of control

O=C(COc1cccc(Cl)c1)Nc1ccc(Cl)cc1
inactive: dose: 100.0 mg/kg/injection, schedule: Q01DX009 (ip), vehicle: gum acacia 86 % of control | dose: 200.0 mg/kg/injection, schedule: Q01DX009 (ip), vehicle: gum acacia 86 % of control | dose: 400.0 mg/kg/injection, schedule: Q01DX009 (ip), vehicle: gum acacia 87 % of control

CCCCCCCCOC(=O)C1=NC=NC1=[N+]=[N-]
inactive: dose: 5.0 mg/kg/injection, schedule: Q01DX001 (ip), vehicle: other 107 % of control | dose: 10.0 mg/kg/injection, schedule: Q01DX001 (ip), vehicle: other 110 % of control | dose: 20.0 mg/kg/injection, schedule: Q01DX001 (ip), vehicle: other 104 % of control | dose: 40.0 mg/kg/injection, schedule: Q01DX001 (ip), vehicle: other 101 % of control

CN1CC(N(C)C)CCC/C=C\C1=O (configuration not stated)
inactive: [8] 102 % of control

COc1ccc(-c2ccc(CCNC(C)=O)cc2)cc1Cl
inactive: [1] 94 % of control | dose: 200.0 mg/kg/injection, schedule: Q01DX001 (ip), vehicle: carboxymethylcellulose (CMC) 86 % of control | dose: 400.0 mg/kg/injection, schedule: Q01DX001 (ip), vehicle: carboxymethylcellulose (CMC) 89 % of control

CCc1cccc(CC)c1NC(=O)NS(=O)(=O)c1ccccc1
inactive: [2] 91 % of control | [4] 88 % of control

CCOC(=O)c1ccc(NCC(C)(C)N)cc1
inactive: [18] 97 % of control

O=C(O)CCCN1C(=O)CCC1=O
inactive: [18] 97 % of control | [19] 95 % of control | [20] 106 % of control

From PubChem BioAssay AID248 (DTP/NCI, 2004)
